Source: patent US20160175249A1, “Liposomes Containing Oligopeptide Fragments of Myelin Basic Protein, a Pharmaceutical Composition and a Method for Treatment of Multiple Sclerosis” (LIPOXEN TECHNOLOGIES LIMITED, priority 2009, published 2016)

Assays:
[1] = system: experimental allergic encephalomyelitis (EAE) in DA rats; assay: Treatment of EAE in DA rats with liposomally encapsulated MBP peptides (Example 5); format: in vivo; conditions: 150 μg per animal daily subdermally days 6-11, score 0-5
Procedure: To induce experimental allergic encephalomyelitis (EAE) in DA rats having a mass of 220-250 g ([…]), 10 μg of myelin basic protein encephalogenic peptide fragment ARTTHYGSLPQKSQRSQ (SEQ ID NO:4; Anaspec, US) emulsified in Freund's complete adjuvant (Difco, US) at a concentration of 10% (m/v) was subdermally injected into the forepaw. The rats were weighted and monitored for EAE neurological symptoms daily. The EAE symptom profile of each rate was scored according to the following scale: (0)—absence of EAE symptoms; (1)—decrease in tail tonicity; (2)—decrease in righting reflex; (3)—paresis; (4)—full paralysis; and (5)—agony or death. Intermediary symptoms were scored by increasing or decreasing the value by 0.5 units. Six days after EAE induction, animals were randomly distributed into several groups (12 animals each).
Between days six and eleven after induction, rats in each respective group were subdermally injected with the liposomal preparation described in Example 2 (emulsified in phosphate saline solution, pH 7.4), a positive control preparation of glatiramer acetate (GA; copaxone, Teva Pharmaceutical Industries Ltd, Israel), a prototype peptide: DENPVVIIFFKNIVTPRT (SEQ ID NO:5), or a buffered phosphate saline solution (pH 7.4) placebo. The peptide, Glatiramer acetate, and liposomal preparations were formulated immediately prior to administration using buffered phosphate saline solution (pH 7.4). 0.1 mL of each composition was administered daily at a concentration of 150 μg per animal.

[2] = system: multiple sclerosis (cerebrospinal form, remissive course); assay: Treatment of a human subject diagnosed with multiple sclerosis (Example 7); format: in vivo; conditions: patient, 500 mg once every two weeks
Description: A patient diagnosed with multiple sclerosis (cerebrospinal form, remissive course), in the relapse stage, was previously subjected to repeated corticosteroid treatment. […] At the time of treatment, the patient presented with: lateral nystagmus when looking to the right, active tendon reflex, S<D in the legs, active upper abdominal reflex, absent middle and lower abdominal reflex, bilateral Babinski's symptom, foot clonus (more expressed in the right foot), no paresis in the extremities, muscle tonicity unchanged, ataxic gait, loss of balance in the Romberg stance, ataxia when performing hccl-shin test, and urine retention. The value of the patient's neurological deficit on the EDSS scale was 6.
The patient also presented with ophthalmic blanching of temporal halves of optic nerve heads. After studying the patient's PBMC, the activity of T-lymphocytcs with respect to MBP was determined at a stimulation index (SI) of 7.45. Levels of serum IgG antibodies were 75 units per ml.
With the patient's consent, the prototype peptide composition was administered once every two weeks at a dosage of 500 mg. 7 days after each injection, the patient's peripheral (venous) blood was sampled in order to determine changes in T-lymphocyte activity with respect to MBP, as well as autoantibody levels. […] At week four, the patients IgG autoantibody level increased to 112 units per mL, and T-cell SI doubled. […]

## DENPVVIIFFKNIVTPRT (a prototype peptide) [prototype peptide used as comparator]
[1]; day 0 after EAE induction
  Evaluation of EAE symptom intensity, average: 0.00
[1]; day 1 after EAE induction
  Evaluation of EAE symptom intensity, average: 0.00
[1]; day 2 after EAE induction
  Evaluation of EAE symptom intensity, average: 0.00
[1]; day 3 after EAE induction
  Evaluation of EAE symptom intensity, average: 0.00
[1]; day 4 after EAE induction
  Evaluation of EAE symptom intensity, average: 0.00
[1]; day 5 after EAE induction
  Evaluation of EAE symptom intensity, average: 0.00
[1]; day 6 after EAE induction
  Evaluation of EAE symptom intensity, average: 0.00
[1]; day 7 after EAE induction
  Evaluation of EAE symptom intensity, average: 0.00
[1]; day 8 after EAE induction
  Evaluation of EAE symptom intensity, average: 0.58
[1]; day 9 after EAE induction
  Evaluation of EAE symptom intensity, average: 1.33
[1]; day 10 after EAE induction
  Evaluation of EAE symptom intensity, average: 2.42
[1]; day 11 after EAE induction
  Evaluation of EAE symptom intensity, average: 2.33
[1]; day 12 after EAE induction
  Evaluation of EAE symptom intensity, average: 2.50
[1]; day 13 after EAE induction
  Evaluation of EAE symptom intensity, average: 2.17
[1]; day 14 after EAE induction
  Evaluation of EAE symptom intensity, average: 2.00
[1]; day 15 after EAE induction
  Evaluation of EAE symptom intensity, average: 1.83
[1]; day 16 after EAE induction
  Evaluation of EAE symptom intensity, average: 1.67
[1]; day 17 after EAE induction
  Evaluation of EAE symptom intensity, average: 1.33
[1]; day 18 after EAE induction
  Evaluation of EAE symptom intensity, average: 1.42
[1]; day 19 after EAE induction
  Evaluation of EAE symptom intensity, average: 1.08
[1]; day 20 after EAE induction
  Evaluation of EAE symptom intensity, average: 0.83
[1]; day −1 after EAE induction
  Evaluation of EAE symptom intensity, average: 0.00
[2]; over the course of 7 weeks
  clinical presentation of MS: progressed slightly
[2]; week four, before treatment 7.45
  T-cell SI: doubled
